Measured values published in patent US6479435B1, “Diaryl ethers and processes for their preparation and herbicidal and desiccant compositions containing them” (ISK Americas Incorporated, priority 1997, dated 2002).

Legend:
Format in all cases: in vivo
[1] = system: Johnsongrass (Sorghum halepense, SORHA); test: Pre-emerge greenhouse herbicide test, phytotoxicity rating; conditions: 14 days after application, rating scale 0-100
In short: (§1)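 Seeds sown in sandy loam mix one day before track-sprayer application of compounds in acetone at 125–1000 g ai/ha (187 l/ha), then surface-watered to incorporate and bottom-watered. Visual rating 14 days after application on a 0–100 scale (0 = no damage, 100 = all plants dead).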

[2] = system: barnyardgrass (Echinochloa crusgalli, ECHCG); test: as above; conditions: 14 days after application, rating scale 0-100
In short: as §1

[3] = system: common ragweed (Ambrosia artemisiifolia L., AMBEL); test: as above; conditions: 14 days after application, rating scale 0-100
In short: as §1

[4] = system: green foxtail (Setaria viridis, SETVI); test: as above; conditions: 14 days after application, rating scale 0-100
In short: as §1

[5] = system: ivyleaf morningglory (Ipomoea hederacea, IPOHE); test: as above; conditions: 14 days after application, rating scale 0-100
In short: as §1

[6] = system: lambsquarters (Chenopodium album, CHEAL); test: as above; conditions: 14 days after application, rating scale 0-100
In short: as §1

[7] = system: large crabgrass (Digitaria sanguinalis, DIGSA); test: as above; conditions: 14 days after application, rating scale 0-100
In short: as §1

[8] = system: redroot pigweed (Amaranthus retroflexus, AMARE); test: as above; conditions: 14 days after application, rating scale 0-100
In short: as §1

[9] = system: sicklepod (Cassia obtusifolia, CASOB); test: as above; conditions: 14 days after application, rating scale 0-100
In short: as §1

[10] = system: velvetleaf (Abutilon theophrasti, ABUTH); test: as above; conditions: 14 days after application, rating scale 0-100
In short: as §1

[11] = system: field corn (Zea mays L., var. Dekalb 535, CORN); test: Pre-emerge greenhouse test, crop damage rating; conditions: 14 days after application, rating scale 0-100
In short: as §1

[12] = system: upland rice (Oryza sp., var.Tebonnet, RICE); test: Pre-emerge greenhouse test, crop damage rating; conditions: 14 days after application, rating scale 0-100
In short: as §1

[13] = system: soybean (Glycine max L., var. Pella 86, SOY); test: Pre-emerge greenhouse test, crop damage rating; conditions: 14 days after application, rating scale 0-100
In short: as §1

[14] = system: common ragweed (Ambrosia artemisiifolia L., AMBEL); test: Post-emerge greenhouse herbicide test, phytotoxicity rating; conditions: 14 days after application
In short: (§2)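 Compounds in acetone with 0.25% v/v non-ionic surfactant were track-sprayed at 187 l/ha over plants at the 2-3 leaf stage, at 63 to 1000 g ai/ha. Pots were bottom-watered. Injury was scored visually 14 days later on a 0-100 scale, where 0 is no damage and 100 is complete plant death.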

[15] = system: Johnsongrass (Sorghum halepense, SORHA); test: as above; conditions: 14 days after application
In short: as §2

[16] = system: barnyardgrass (Echinochloa crusgalli, ECHCG); test: as above; conditions: 14 days after application
In short: as §2

[17] = system: green foxtail (Setaria viridis, SETVI); test: as above; conditions: 14 days after application
In short: as §2

[18] = system: ivyleaf morningglory (Ipomoea hederacea, IPOHE); test: as above; conditions: 14 days after application
In short: as §2

[19] = system: lambsquarters (Chenopodium album, CHEAL); test: as above; conditions: 14 days after application
In short: as §2

[20] = system: large crabgrass (Digitaria sanguinalis, DIGSA); test: as above; conditions: 14 days after application
In short: as §2

[21] = system: redroot pigweed (Amaranthus retroflexus, AMARE); test: as above; conditions: 14 days after application
In short: as §2

[22] = system: sicklepod (Cassia obtusifolia, CASOB); test: as above; conditions: 14 days after application
In short: as §2

[23] = system: velvetleaf (Abutilon theophrasti, ABUTH); test: as above; conditions: 14 days after application
In short: as §2

[24] = system: field corn (Zea mays L., var. Dekalb 535, CORN); test: Post-emerge greenhouse test, crop damage rating; conditions: 14 days after application
In short: as §2

[25] = system: upland rice (Oryza sp., var.Tebonnet, RICE); test: Post-emerge greenhouse test, crop damage rating; conditions: 14 days after application
In short: as §2

[26] = system: soybean (Glycine max L., var. Pella 86, SOY); test: Post-emerge greenhouse test, crop damage rating; conditions: 14 days after application
In short: as §2

## O=c1n(CCCF)nnn1-c1cc(Oc2ncc(Br)cn2)c(Cl)cc1F [Compound 6-16]
[1]; 125 g ai/ha
  phytotoxicity rating SORHA: 40
[1]; 500 g ai/ha
  phytotoxicity rating SORHA: 80
[2]; 125 g ai/ha
  phytotoxicity rating ECHCG: 0
[2]; 500 g ai/ha
  phytotoxicity rating ECHCG: 90
[3]; 125 g ai/ha
  phytotoxicity rating AMBEL: 0
[3]; 500 g ai/ha
  phytotoxicity rating AMBEL: 70
[4]; 125 g ai/ha
  phytotoxicity rating SETVI: 80
[4]; 500 g ai/ha
  phytotoxicity rating SETVI: 100
[5]; 125 g ai/ha
  phytotoxicity rating IPOHE: 50
[5]; 500 g ai/ha
  phytotoxicity rating IPOHE: 30
[6]; 125 g ai/ha
  phytotoxicity rating CHEAL: 100
[6]; 500 g ai/ha
  phytotoxicity rating CHEAL: 100
[7]; 125 g ai/ha
  phytotoxicity rating DIGSA: 80
[7]; 500 g ai/ha
  phytotoxicity rating DIGSA: 100
[8]; 125 g ai/ha
  phytotoxicity rating AMARE: 100
[8]; 500 g ai/ha
  phytotoxicity rating AMARE: 100
[9]; 125 g ai/ha
  phytotoxicity rating CASOB: 50
[9]; 500 g ai/ha
  phytotoxicity rating CASOB: 30
[10]; 125 g ai/ha
  phytotoxicity rating ABUTH: 100
[10]; 500 g ai/ha
  phytotoxicity rating ABUTH: 100
[11]; 125 g ai/ha
  crop damage rating CORN: 0
[11]; 500 g ai/ha
  crop damage rating CORN: 15
[12]; 125 g ai/ha
  crop damage rating RICE: 0
[12]; 500 g ai/ha
  crop damage rating RICE: 50
[13]; 125 g ai/ha
  crop damage rating SOY: 0
[13]; 500 g ai/ha
  crop damage rating SOY: 10
[14]; 63 g al/ha
  AMBEL phytotoxicity rating (0-100): 15
[14]; 500 g al/ha
  AMBEL phytotoxicity rating (0-100): 20
[15]; 63 g al/ha
  SORHA phytotoxicity rating (0-100): 0
[15]; 500 g al/ha
  SORHA phytotoxicity rating (0-100): 20
[16]; 63 g al/ha
  ECHCG phytotoxicity rating (0-100): 0
[16]; 500 g al/ha
  ECHCG phytotoxicity rating (0-100): 30
[17]; 63 g al/ha
  SETVI phytotoxicity rating (0-100): 20
[17]; 500 g al/ha
  SETVI phytotoxicity rating (0-100): 50
[18]; 63 g al/ha
  IPOHE phytotoxicity rating (0-100): 95
[18]; 500 g al/ha
  IPOHE phytotoxicity rating (0-100): 95
[19]; 63 g al/ha
  CHEAL phytotoxicity rating (0-100): 80
[19]; 500 g al/ha
  CHEAL phytotoxicity rating (0-100): 100
[20]; 63 g al/ha
  DIGSA phytotoxicity rating (0-100): 0
[20]; 500 g al/ha
  DIGSA phytotoxicity rating (0-100): 0
[21]; 63 g al/ha
  AMARE phytotoxicity rating (0-100): 70
[21]; 500 g al/ha
  AMARE phytotoxicity rating (0-100): 100
[22]; 63 g al/ha
  CASOB phytotoxicity rating (0-100): 0
[22]; 500 g al/ha
  CASOB phytotoxicity rating (0-100): 30
[23]; 63 g al/ha
  ABUTH phytotoxicity rating (0-100): 100
[23]; 500 g al/ha
  ABUTH phytotoxicity rating (0-100): 100
[24]; 63 g al/ha
  CORN crop damage rating (0-100): 10
[24]; 500 g al/ha
  CORN crop damage rating (0-100): 20
[25]; 63 g al/ha
  RICE crop damage rating (0-100): 30
[25]; 500 g al/ha
  RICE crop damage rating (0-100): 40
[26]; 63 g al/ha
  SOY crop damage rating (0-100): 40
[26]; 500 g al/ha
  SOY crop damage rating (0-100): 60

## Cn1nc(-c2cc(Oc3ncccn3)c(Cl)cc2F)c(Cl)c1C(F)(F)F [Compound 1-7]
[1]; 125 g ai/ha
  phytotoxicity rating SORHA: 100
[1]; 500 g ai/ha
  phytotoxicity rating SORHA: 100
[2]; 125 g ai/ha
  phytotoxicity rating ECHCG: 100
[2]; 500 g ai/ha
  phytotoxicity rating ECHCG: 100
[3]; 125 g ai/ha
  phytotoxicity rating AMBEL: 100
[3]; 500 g ai/ha
  phytotoxicity rating AMBEL: 100
[4]; 125 g ai/ha
  phytotoxicity rating SETVI: 100
[4]; 500 g ai/ha
  phytotoxicity rating SETVI: 100
[5]; 125 g ai/ha
  phytotoxicity rating IPOHE: 40
[5]; 500 g ai/ha
  phytotoxicity rating IPOHE: 70
[6]; 125 g ai/ha
  phytotoxicity rating CHEAL: 100
[6]; 500 g ai/ha
  phytotoxicity rating CHEAL: 100
[7]; 125 g ai/ha
  phytotoxicity rating DIGSA: 100
[7]; 500 g ai/ha
  phytotoxicity rating DIGSA: 100
[8]; 125 g ai/ha
  phytotoxicity rating AMARE: 100
[8]; 500 g ai/ha
  phytotoxicity rating AMARE: 100
[9]; 125 g ai/ha
  phytotoxicity rating CASOB: 95
[9]; 500 g ai/ha
  phytotoxicity rating CASOB: 90
[10]; 125 g ai/ha
  phytotoxicity rating ABUTH: 90
[10]; 500 g ai/ha
  phytotoxicity rating ABUTH: 99
[11]; 125 g ai/ha
  crop damage rating CORN: 40
[11]; 500 g ai/ha
  crop damage rating CORN: 70
[12]; 125 g ai/ha
  crop damage rating RICE: 70
[12]; 500 g ai/ha
  crop damage rating RICE: 90
[13]; 125 g ai/ha
  crop damage rating SOY: 0
[13]; 500 g ai/ha
  crop damage rating SOY: 0
[14]; 63 g al/ha
  AMBEL phytotoxicity rating (0-100): 95
[14]; 500 g al/ha
  AMBEL phytotoxicity rating (0-100): 100
[15]; 63 g al/ha
  SORHA phytotoxicity rating (0-100): 90
[15]; 500 g al/ha
  SORHA phytotoxicity rating (0-100): 100
[16]; 63 g al/ha
  ECHCG phytotoxicity rating (0-100): 100
[16]; 500 g al/ha
  ECHCG phytotoxicity rating (0-100): 100
[17]; 63 g al/ha
  SETVI phytotoxicity rating (0-100): 100
[17]; 500 g al/ha
  SETVI phytotoxicity rating (0-100): 100
[18]; 63 g al/ha
  IPOHE phytotoxicity rating (0-100): 100
[18]; 500 g al/ha
  IPOHE phytotoxicity rating (0-100): 100
[19]; 63 g al/ha
  CHEAL phytotoxicity rating (0-100): 100
[19]; 500 g al/ha
  CHEAL phytotoxicity rating (0-100): 100
[20]; 63 g al/ha
  DIGSA phytotoxicity rating (0-100): 90
[20]; 500 g al/ha
  DIGSA phytotoxicity rating (0-100): 100
[21]; 63 g al/ha
  AMARE phytotoxicity rating (0-100): 100
[21]; 500 g al/ha
  AMARE phytotoxicity rating (0-100): 100
[22]; 500 g al/ha
  CASOB phytotoxicity rating (0-100): 100
[23]; 63 g al/ha
  ABUTH phytotoxicity rating (0-100): 100
[23]; 500 g al/ha
  ABUTH phytotoxicity rating (0-100): 100
[24]; 63 g al/ha
  CORN crop damage rating (0-100): 90
[24]; 500 g al/ha
  CORN crop damage rating (0-100): 70
[25]; 63 g al/ha
  RICE crop damage rating (0-100): 100
[25]; 500 g al/ha
  RICE crop damage rating (0-100): 80
[26]; 63 g al/ha
  SOY crop damage rating (0-100): 100
[26]; 500 g al/ha
  SOY crop damage rating (0-100): 100
